Source: patent US9376470B2, “Polypeptide having angiogenesis-inducing activity and antibacterial activity, and use thereof for medical purposes” (FunPep Inc., priority 2008, dated 2016)
Peptide text beside a SMILES is read from it.

Tests used:
Assay type in all cases: cell-based
[1] = system: Staphylococcus aureus ATCC29213; assay: Antibacterial activity, ATP assay (BacTiter-Glo); details: 10 μg/mL, ATP assay
Experimental: (§1) The antibacterial activity of the polypeptides was measured using an ATP assay method. That is, using BacTiter-Glo Microbial Cell Viability Assay kit available from PROMEGA, the antibacterial activity of the peptides was evaluated from the viability of bacteria. […] With respect to the strains, Staphylococcus aureus ATCC29213 (S. aureus ATCC29213) as Gram-positive bacteria, or, alternatively, Pseudomonas aeruginosa (P. aeruginosa ATCC27853) as Gram-negative bacteria, was used. The bacteria were cultured in media for 3 to 4 hours, and thereafter absorbances at A600 were measured. Bacterial suspensions were diluted with Mueller-Hinton broth (MHB) according to McFarland #0.5. Each strain was added so as to attain about 0.5−1×10^5 CFU/mL (final concentration) in terms of Escherichia coli. […] A solution to which the peptides were not added was considered as a negative control, and a solution to which tobramycin (TOB) was added was considered as a positive control. […] Relative values were calculated by comparison with the negative control, and these values were regarded as the viability. ATP (%) of the antibacterial activity was measured in the same manner as mentioned above, and the “minimum inhibitory concentration (MIC)” was measured as follows. MIC is the lowest concentration of an agent that may inhibit the growth of a bacterium. MIC is used as a parameter for the efficacy of an antibacterial agent, for the strength of bacterial sensitivity, or the like. The bacteria can grow (proliferate) when the concentration is not higher than MIC, and cannot grow when the concentration is higher than MIC. Its measurement is carried out according to a method defined as a standard method by Japanese Society of Chemotherapy or CLINICAL AND LABORATORY […] (CLSI), but, in this Example, its measurement was carried out by a broth microdilution method in accordance with “M100-S17/M7-A7” (Performance Standards for Antimicrobial Susceptibility Testing; Seventeenth Informational Supplement, Vol. 27 No. 1) published by CLSI on January, 2007. That is, sensitivity test of agents was carried out using a microtiter plate or test tubes. With respect to each strain, Escherichia coli: ATCC 25922 (Escherichia coli ATCC 25922), Pseudomonas aeruginosa: ATCC 27853 (Pseudomonas aeruginosa ATCC 27853), Staphylococcus aureus: ATCC29213 (Staphylococcus aureus ATCC29213), Klebsiella pneumoniae: JCM 1662 (Klebsiella pneumoniae JCM 1662), enterobacteria (1): JCM 1232 (Enterobacter cloacae JCM 1232), enterobacteria (2): JCM 1235 (Enterobacter aerogenes JCM 1235), and Staphylococcus epidermidis: JCM 2414 (Staphylococcus epidermidis JCM 2414), were used. […] As the concentrations of the agents in ATP assay, the concentrations as described in the Tables were used.

[2] = system: human vascular endothelial cells and fibroblast cells (co-culture); assay: Lumen formation with angiogenesis kit KZ-1000 (section 7); details: day 11
Experimental: Using an angiogenesis kit available from KURABO […] LTD. (Product No.: KZ-1000), lumen formation by the polypeptides was evaluated. Vascular endothelial growth factor A (VEGF-A) as a positive control, and polypeptide-free, unstimulated group as a negative control, were used.
Using a special medium for angiogenesis which was attached to the kit, each polypeptide was prepared such that the concentration thereof was respectively 0.5, 2.5 and 10 μg/mL. To a 24-well plate in which cells were plated (the cells were those obtained by co-culturing human vascular endothelial cells and fibroblast cells at an optimum concentration) which was attached to the kit, the special medium for angiogenesis containing each polypeptide was added, and the cells were cultured at 37° C. under 5% CO2. The medium was replaced with a medium containing the same additive on day 4, day 7 and day 9 of culture. On day 11 from the beginning of the culture, staining was performed using a kit for staining lumina (for CD31 antibody staining) according to the following procedure.
The media were removed, and washing was performed with Dulbecco's phosphate buffered saline (PBS(−)). Thereafter, ice-cooled 70% ethanol was added to the plate, and the cells were fixed. Each well was washed with a blocking solution (Dulbecco's phosphate buffered saline (PBS(−)) containing 1% BSA). To each well, 0.5 mL of the primary antibody for CD31 staining (mouse anti-human CD31 antibody) 4000-fold diluted with the blocking solution was added, and then the plate was incubated for 60 minutes at 37° C. After the completion of the incubation, each well was washed totally 3 times with 1 mL of the blocking solution. Then, 0.5 mL of the secondary antibody solution (goat anti-mouse IgG/alkaline phosphatase conjugate) 500-fold diluted with the blocking solution was added to each well. The plate was incubated for 60 minutes at 37° C., and thereafter each well was washed 3 times with 1 mL of distilled water. During that period, 2 tablets of BCIP/NBT were dissolved into distilled water, and the obtained solution was filtered through a filter having a pore size of […] to prepare a substrate solution. To each well, 0.5 mL of the prepared BCIP/NBT substrate solution was added, and the plate was incubated at 37° C. until the lumina turned to deep purple (typically for 5-10 minutes). After the completion of the incubation, each well was washed 3 times with 1 mL of distilled water. After washing, the washing solution was removed by aspiration, and the plate was left to stand and dry naturally. After drying, photographs of each well were taken under a microscope.
Each of the obtained images was quantified using an angiogenesis quantification software. The area and length of formed lumina observed in each visual field were measured on the basis of the scale of an angiogenesis quantification software available from KURABO […] LTD. (angiogenesis quantification software Ver 1.0), and evaluated on the basis of the ratio of the area or length of polypeptide-containing groups relative to the area or length of the negative control group.

[3] = system: Pseudomonas aeruginosa ATCC27853; assay: Antibacterial activity, ATP assay (BacTiter-Glo); details: Table 4-1; ATP assay concentration: peptides 10, TOB 1.0, CPFX 1.0, OX 0.5, MEPM 1.0 μg/ml
Experimental: as §1

[4] = system: Enterobacteria (2): Enterobacter aerogenes JCM 1235; assay: Antibacterial activity, ATP assay (BacTiter-Glo); details: ATP assay concentration: peptides 10, TOB 4.0, CPFX 1.0, OX 4.0, MEPM 8.0 μg/ml
Experimental: (§2) That is, using BacTiter-Glo Microbial Cell Viability Assay kit available from PROMEGA, the antibacterial activity of the peptides was evaluated from the viability of bacteria. […] With respect to the strains, Staphylococcus aureus ATCC29213 (S. aureus ATCC29213) as Gram-positive bacteria, or, alternatively, Pseudomonas aeruginosa (P. aeruginosa ATCC27853) as Gram-negative bacteria, was used. The bacteria were cultured in media for 3 to 4 hours, and thereafter absorbances at A600 were measured. Bacterial suspensions were diluted with Mueller-Hinton broth (MHB) according to McFarland #0.5. Each strain was added so as to attain about 0.5−1×10^5 CFU/mL (final concentration) in terms of Escherichia coli. […] A solution to which the peptides were not added was considered as a negative control, and a solution to which tobramycin (TOB) was added was considered as a positive control. […] Relative values were calculated by comparison with the negative control, and these values were regarded as the viability. […] ATP (%) of the antibacterial activity was measured in the same manner as mentioned above, and the “minimum inhibitory concentration (MIC)” was measured as follows. MIC is the lowest concentration of an agent that may inhibit the growth of a bacterium. MIC is used as a parameter for the efficacy of an antibacterial agent, for the strength of bacterial sensitivity, or the like. The bacteria can grow (proliferate) when the concentration is not higher than MIC, and cannot grow when the concentration is higher than MIC. Its measurement is carried out according to a method defined as a standard method by Japanese Society of Chemotherapy or CLINICAL AND LABORATORY […] (CLSI), but, in this Example, its measurement was carried out by a broth microdilution method in accordance with “M100-S17/M7-A7” (Performance Standards for Antimicrobial Susceptibility Testing; Seventeenth Informational Supplement, Vol. 27 No. 1) published by CLSI on January, 2007. That is, sensitivity test of agents was carried out using a microtiter plate or test tubes. With respect to each strain, Escherichia coli: ATCC 25922 (Escherichia coli ATCC 25922), Pseudomonas aeruginosa: ATCC 27853 (Pseudomonas aeruginosa ATCC 27853), Staphylococcus aureus: ATCC29213 (Staphylococcus aureus ATCC29213), Klebsiella pneumoniae: JCM 1662 (Klebsiella pneumoniae JCM 1662), enterobacteria (1): JCM 1232 (Enterobacter cloacae JCM 1232), enterobacteria (2): JCM 1235 (Enterobacter aerogenes JCM 1235), and Staphylococcus epidermidis: JCM 2414 (Staphylococcus epidermidis JCM 2414), were used. […] As the concentrations of the agents in ATP assay, the concentrations as described in the Tables were used.

[5] = system: Escherichia coli ATCC 25922; assay: Antibacterial activity, ATP assay (BacTiter-Glo); details: ATP assay concentration: peptides 10, TOB 1.0, CPFX 0.015, OX 0.5, MEPM 0.1 μg/ml
Experimental: as §2

[6] = system: Klebsiella pneumoniae JCM 1662; assay: Antibacterial activity, ATP assay (BacTiter-Glo); details: ATP assay concentration: peptides 10, TOB 4.0, CPFX 1.0, OX 0.5, MEPM 8.0 μg/ml
Experimental: as §2

[7] = system: Staphylococcus epidermidis JCM 2414; assay: Antibacterial activity, ATP assay (BacTiter-Glo); details: ATP assay concentration: peptides 10, TOB 1.0, CPFX 0.5, OX 0.5, MEPM 0.125 μg/ml
Experimental: as §2

[8] = VEGF-A positive control, concentration not given

CSCC[C@H](N)C(=O)N[C@@H](CCCNC(=N)N)C(=O)N[C@@H](CCCCN)C(=O)N[C@@H](CCCNC(=N)N)C(=O)N[C@@H](CC(C)C)C(=O)N[C@@H](CCCCN)C(=O)N[C@@H](CCCNC(=N)N)C(=O)N[C@@H](CCCCN)C(=O)N[C@@H](CC(C)C)C(=O)N[C@@H](CCCNC(=N)N)C(=O)N[C@@H](CC(C)C)C(=O)N[C@@H](Cc1c[nH]c2ccccc12)C(=O)N[C@@H](Cc1c[nH]cn1)C(=O)N[C@@H](CCCNC(=N)N)C(=O)N[C@@H](CCCCN)C(=O)N[C@@H](CCCNC(=N)N)C(=O)N[C@@H](Cc1ccc(O)cc1)C(=O)N[C@@H](CCCCN)C(N)=O [SR-6] (H-MRKRLKRKLRLWHRKRYK-NH2; N-terminus assumed)
antibacterial activity against Staphylococcus aureus compared with AG30-5C [1]: higher antibacterial activity against Staphylococcus aureus than AG30-5C | The Area of Lumina (relative value, negative control as 100) ([2]; polypeptide 0.5 μg/mL): 97.3 | The Length of Lumina (relative value, negative control as 100) ([2]; polypeptide 0.5 μg/mL): 98.4 | The Area of Lumina (relative value, negative control as 100) ([2]; polypeptide 10 μg/mL): 98.6 | The Length of Lumina (relative value, negative control as 100) ([2]; polypeptide 10 μg/mL): 96.6

Vascular endothelial growth factor A [VEGF-A]
The Area of Lumina (relative value, negative control as 100) [2, 8]: 189.2 | The Length of Lumina (relative value, negative control as 100) [2, 8]: 169.8

O=C(O)c1cn(C2CC2)c2cc(N3CCNCC3)c(F)cc2c1=O [CPFX, ciprofloxacin, reference compound]
ATP (%) mean, Pseudomonas aeruginosa [3]: 2.3% | ATP (%) mean, Enterobacteria (2) [4]: 3.2% | ATP (%) mean, Escherichia coli [5]: 15.4% | ATP (%) mean, Klebsiella pneumoniae [6]: 8.2% | ATP (%) mean, Staphylococcus epidermidis [7]: 7.3%
